Laboratory results reported in patent US20070020196A1, “Inhalant formulation containing sulfoalkyl ether cyclodextrin and corticosteroid prepared from a unit dose suspension” (priority 2003, published 2007).
In brackets after ≈: the same amount, converted by molar mass.

Key:
[1] = Stability of budesonide R- and S-isomers with and without SBE7-β-CD (Example 13); type: physicochemical
Procedure: The inventors have also discovered that SAE-CD is capable of stabilizing the isomers of budesonide to different extents. A study to determine if SBE7-β-CD stabilized budesonide solutions and if it preferentially stabilized one isomer was conducted according to Example 13. FIG. 11 is a semi-log plot of the % of initial concentration at each time point for the samples stored at 60 ° C. Loss of budesonide was first order at each temperature.
Solutions of budesonide with and without SBE7-β-CD were prepared at two different pHs (4 and 6) and stored at 2 different temperatures (60° C. and 80° C.). Citrate buffers (50 mM) at each pH value were prepared by mixing differing portions of 50 mM citric acid and 50 mM sodium citrate (tribasic, dihydrate) solutions. To achieve a concentration of budesonide in the buffers without SBE7-β-CD sufficient for accurate measurement, the budesonide was dissolved first in 100% ethyl alcohol. An aliquot of the ethanol/budesonide solution was then added drop-wise with stirring to each buffer solution. The theoretical budesonide concentration was 100 μg/mL with a final ethanolic content of 5% in each buffer. All solution preps and procedures involving budesonide were done in a darkened room under red light. After shaking solutions for 24 hours, both buffer solutions were filtered through Millipore Millex-GV 0.22 μm syringe filters to remove any solid that had precipitated (no significant amounts observed) from the solutions. The final budesonide concentration was about 50 μg/mL. Both the pH 4 and 6 solutions were split in two, and solid SBE7-β-CD was added to one of the portions to create solutions with and without 1% w/v SBE7-β-CD at each pH. Each solution was aliquoted into individual amber vials. They were then placed in ovens at 60° C. and 80° C. Sample vials were removed from the ovens and analyzed by HPLC at 0, 96, 164, and 288 hours. The HPLC assay conditions are summarized below.

[2] = Molar ratio SAE-CD:corticosteroid at saturated solubility (phase solubility binding study); type: physicochemical
physchem = conditions: thermodynamic from solid
[3] = Solubility of selected steroids enhanced by cyclodextrins (phase solubility); conditions: thermodynamic from solid
[4] = aqueous with cosolvent or surfactant or cyclodextrin, [Steroid] solubility, (SBE)6.1 γ-CD (0.04 M)
[5] = aqueous with cosolvent or surfactant or cyclodextrin, [Steroid] solubility, Captisol (0.04 M)
[6] = water, [Steroid] Intrinsic Solubility (in H2O)
[7] = aqueous cyclodextrin solution, aqueous with cosolvent or surfactant or cyclodextrin, Solubility of steroid, (SBE)2.4 β-CD 0.04 M
[8] = aqueous cyclodextrin solution, aqueous with cosolvent or surfactant or cyclodextrin, Solubility of steroid, (SBE)5.2 γ-CD 0.1 M
[9] = aqueous cyclodextrin solution, aqueous with cosolvent or surfactant or cyclodextrin, Solubility of steroid, (SBE)6.1 γ-CD 0.04 M
[10] = aqueous cyclodextrin solution, aqueous with cosolvent or surfactant or cyclodextrin, Solubility of steroid, (SBE)6.1 γ-CD 0.08 M
[11] = aqueous cyclodextrin solution, aqueous with cosolvent or surfactant or cyclodextrin, Solubility of steroid, (SBE)6.7 β-CD 0.0465 M
[12] = aqueous cyclodextrin solution, aqueous with cosolvent or surfactant or cyclodextrin, Solubility of steroid, (SBE)6.7 β-CD 0.0950 M
[13] = aqueous cyclodextrin solution, aqueous with cosolvent or surfactant or cyclodextrin, Solubility of steroid, (SBE)7 α-CD 0.04 M
[14] = aqueous cyclodextrin solution, aqueous with cosolvent or surfactant or cyclodextrin, Solubility of steroid, (SBE)7 α-CD 0.08 M
[15] = aqueous cyclodextrin solution, aqueous with cosolvent or surfactant or cyclodextrin, Solubility of steroid, (SBE)9.7 γ-CD […]
[16] = aqueous cyclodextrin solution, aqueous with cosolvent or surfactant or cyclodextrin, Solubility of steroid, (SPE)5.4 γ-CD 0.04 M
[17] = aqueous cyclodextrin solution, aqueous with cosolvent or surfactant or cyclodextrin, Solubility of steroid, (SPE)5.4 γ-CD 0.08 M
[18] = aqueous cyclodextrin solution, aqueous with cosolvent or surfactant or cyclodextrin, Solubility of steroid, (SPE)7 β-CD 0.04 M
[19] = aqueous cyclodextrin solution, aqueous with cosolvent or surfactant or cyclodextrin, Solubility of steroid, (SPE)7 β-CD 0.08 M
[20] = aqueous cyclodextrin solution, aqueous with cosolvent or surfactant or cyclodextrin, Solubility of steroid, γ-CD 0.035 M
[21] = aqueous cyclodextrin solution, aqueous with cosolvent or surfactant or cyclodextrin, Solubility of steroid, γ-CD 0.1 M
[22] = aqueous cyclodextrin solution, aqueous with cosolvent or surfactant or cyclodextrin, [Steroid] solubility, (SBE)6.1 γ-CD (0.04 M)
[23] = aqueous cyclodextrin solution, aqueous with cosolvent or surfactant or cyclodextrin, [Steroid] solubility, Captisol (0.04 M)
[24] = water, Solubility of steroid, H2O, no CD
[25] = water, [Steroid] Intrinsic Solubility (in H2O), in H2O
[26] = aqueous cyclodextrin solution, aqueous with cosolvent or surfactant or cyclodextrin, Solubility of steroid, α-CD 0.08 M
[27] = aqueous cyclodextrin solution, aqueous with cosolvent or surfactant or cyclodextrin, Solubility of steroid, β-CD 0.015M

| Structure (SMILES) | Approximate Molar Ratio at Saturated Solubility of Corticosteroid (SAE-CD: corticosteroid) ([2]; SAE-β-CD) | Approximate Molar Ratio at Saturated Solubility of Corticosteroid (SAE-CD: corticosteroid) ([2]; SAE-γ-CD) | Approximate Molar Ratio at Saturated Solubility of Corticosteroid (SAE-CD: corticosteroid) ([2]; SAE-α-CD) | solubility [3, 8] | solubility [3, 9] | solubility [3, 10] | solubility [3, 11] | solubility [3, 12] | solubility [3, 13] | solubility [3, 14] | solubility [3, 15] | solubility [3, 16] | solubility [3, 17] | solubility [3, 18] | solubility [3, 19] | solubility [3, 20] | solubility [3, 21] | solubility [3, 22] | solubility [3, 23] | solubility [3, 24] | further results |
| --- | --- | --- | --- | --- | --- | --- | --- | --- | --- | --- | --- | --- | --- | --- | --- | --- | --- | --- | --- | --- | --- |
| CCC[C@@H]1O[C@@H]2C[C@H]3[C@@H]4CCC5=CC(=O)C=C[C@]5(C)[C@H]4[C@@H](O)C[C@]3(C)[C@]2(C(=O)CO)O1 (single isomer, unassigned) [R-isomer] | – | – | – | – | – | – | – | – | – | – | – | – | – | – | – | – | – | – | – | – | With/without CAPTISOL ratio of rate constants ([1]; pH 4, 60° C.): 0.547; With/without CAPTISOL ratio of rate constants ([1]; pH 4, 80° C.): 0.607; Pseudo 1st Order Rate constant ([1]; pH 4 no CAPTISOL, 60° C.): 0.00109 h⁻¹; Pseudo 1st Order Rate constant ([1]; pH 4 no CAPTISOL, 80° C.): 0.003704 h⁻¹; Pseudo 1st Order Rate constant ([1]; pH 4 w/ CAPTISOL, 60° C.): 0.000597 h⁻¹; Pseudo 1st Order Rate constant ([1]; pH 4 w/ CAPTISOL, 80° C.): 0.00225 h⁻¹; With/without CAPTISOL ratio of rate constants ([1]; pH 6, 60° C.): 0.385; With/without CAPTISOL ratio of rate constants ([1]; pH 6, 80° C.): 0.529; Pseudo 1st Order Rate constant ([1]; pH 6 no CAPTISOL, 60° C.): 0.00432 h⁻¹; Pseudo 1st Order Rate constant ([1]; pH 6 no CAPTISOL, 80° C.): 0.0138 h⁻¹; Pseudo 1st Order Rate constant ([1]; pH 6 w/ CAPTISOL, 60° C.): 0.001661 h⁻¹; Pseudo 1st Order Rate constant ([1]; pH 6 w/ CAPTISOL, 80° C.): 0.00732 h⁻¹ |
| CCC[C@H]1O[C@@H]2C[C@H]3[C@@H]4CCC5=CC(=O)C=C[C@]5(C)[C@H]4[C@@H](O)C[C@]3(C)[C@]2(C(=O)CO)O1 (single isomer, unassigned) [S-isomer] | – | – | – | – | – | – | – | – | – | – | – | – | – | – | – | – | – | – | – | – | With/without CAPTISOL ratio of rate constants ([1]; pH 4, 60° C.): 0.323; With/without CAPTISOL ratio of rate constants ([1]; pH 4, 80° C.): 0.491; Pseudo 1st Order Rate constant ([1]; pH 4 no CAPTISOL, 60° C.): 0.0037 h⁻¹; Pseudo 1st Order Rate constant ([1]; pH 4 no CAPTISOL, 80° C.): 0.00131 h⁻¹; Pseudo 1st Order Rate constant ([1]; pH 4 w/ CAPTISOL, 60° C.): 0.00012 h⁻¹; Pseudo 1st Order Rate constant ([1]; pH 4 w/ CAPTISOL, 80° C.): 0.000644 h⁻¹; With/without CAPTISOL ratio of rate constants ([1]; pH 6, 60° C.): 0.193; With/without CAPTISOL ratio of rate constants ([1]; pH 6, 80° C.): 0.384; Pseudo 1st Order Rate constant ([1]; pH 6 no CAPTISOL, 60° C.): 0.001872 h⁻¹; Pseudo 1st Order Rate constant ([1]; pH 6 no CAPTISOL, 80° C.): 0.00661 h⁻¹; Pseudo 1st Order Rate constant ([1]; pH 6 w/ CAPTISOL, 60° C.): 0.000361 h⁻¹; Pseudo 1st Order Rate constant ([1]; pH 6 w/ CAPTISOL, 80° C.): 0.00254 h⁻¹ |
| CC1(C)O[C@@H]2C[C@H]3[C@@H]4C[C@H](F)C5=CC(=O)C=C[C@]5(C)[C@H]4[C@@H](O)C[C@]3(C)[C@]2(C(=O)CO)O1 [Flunisolide] | ~16 | ~9 | – | – | – | – | – | – | – | – | – | – | – | – | – | – | – | – | – | – | solubility (physchem; [4]): 4550 µM (≈ 1980 µg/mL); solubility (physchem; [5]): 2620 µM (≈ 1140 µg/mL); solubility (physchem; [6]): 113 µM (≈ 49.1 µg/mL) |
| CCC(=O)O[C@]1(C(=O)SCF)[C@H](C)C[C@H]2[C@@H]3C[C@H](F)C4=CC(=O)C=C[C@]4(C)[C@@]3(F)[C@@H](O)C[C@@]21C [Fluticasone propionate, fluticasone propionate] | ~797 | ~51 | ~501 | 2150 µM | 518 µM | 1210 µM | 54.1 µM | 79.9 µM | 83.7 µM | 114 µM | 1030 µM | 717 µM | 1400 µM | 10.5 µM | 21.2 µM | 735 µM | 221 µM | 518 µM | 54.1 µM | 3.9 µM | solubility [3, 7]: 17 µM; solubility ([3]; aqueous cyclodextrin solution, aqueous with cosolvent or surfactant or cyclodextrin, Solubility of steroid, (SBE)2.4 β-CD 0.08 M): 24.6 µM; solubility ([3]; aqueous cyclodextrin solution, aqueous with cosolvent or surfactant or cyclodextrin, Solubility of steroid, (SBE)5.2 γ-CD 0.04 M): 791 µM; solubility ([3]; aqueous cyclodextrin solution, aqueous with cosolvent or surfactant or cyclodextrin, Solubility of steroid, (SBE)9.7 γ-CD 0.04 M): 545 µM; solubility [3, 25]: 3.9 µM |
| C[C@@H]1C[C@H]2[C@@H]3C[C@H](F)C4=CC(=O)C=C[C@]4(C)[C@@]3(F)[C@@H](O)C[C@]2(C)[C@@]1(O)C(=O)SCF [Fluticasone, fluticasone] | ~32 | – | – | 14400 µM | 5760 µM | 9490 µM | 1260 µM | 2160 µM | – | – | 8950 µM | 7600 µM | 13900 µM | 939 µM | 1510 µM | – | 822 µM | – | – | 1.6 µM | solubility [3, 7]: 128 µM |
| C[C@@H]1C[C@H]2[C@@H]3CCC4=CC(=O)C=C[C@]4(C)[C@@]3(Cl)[C@@H](O)C[C@]2(C)[C@@]1(OC(=O)c1ccco1)C(=O)CCl [Mometasone furoate, mometasone furoate] | ~274 | ~101 | ~141 | 939 µM | 415 µM | 929 µM | 164 µM | 311 µM | 301 µM | 355 µM | 940 µM | 287 µM | 513 µM | 72.3 µM | 108 µM | 141 µM | 658 µM | 415 µM | 164 µM | 18.2 µM | solubility [3, 26]: 2.7 µM; solubility [3, 27]: 13.6 µM; solubility [3, 25]: 18.2 µM |
| C[C@@H]1C[C@H]2[C@@H]3CCC4=CC(=O)C=C[C@]4(C)[C@@]3(Cl)[C@@H](O)C[C@]2(C)[C@@]1(O)C(=O)CCl [Mometasone, mometasone] | ~33 | – | ~73 | 8890 µM | 8410 µM | 14200 µM | 1220 µM | 2260 µM | 550 µM | 1170 µM | 8900 µM | – | 14700 µM | 1220 µM | 2230 µM | 27.1 µM | 0.9 µM | – | – | – | solubility ([3]; aqueous cyclodextrin solution, aqueous with cosolvent or surfactant or cyclodextrin, Solubility of steroid, α-CD 0.04 M): 84 µM; solubility [3, 26]: 285 µM; solubility [3, 27]: 129 µM |
| C[C@]12C=CC(=O)C=C1CC[C@@H]1[C@@H]2C(=O)C[C@@]2(C)[C@H]1CC[C@]2(O)C(=O)CO [Prednisone] | – | – | – | – | – | – | – | – | – | – | – | – | – | – | – | – | – | – | – | – | solubility (physchem; [4]): 13100 µM (≈ 4710 µg/mL); solubility (physchem; [5]): 18300 µM (≈ 6570 µg/mL); solubility (physchem; [6]): 505 µM (≈ 181 µg/mL) |
| CC1(C)O[C@@H]2C[C@H]3[C@@H]4CCC5=CC(=O)C=C[C@]5(C)[C@@]4(F)[C@@H](O)C[C@]3(C)[C@]2(C(=O)CO)O1 [Triamcinolone acetonide, triamcinolone acetonide] | ~9 | – | – | – | 10600 µM | 23900 µM | 4570 µM | 10200 µM | – | – | – | – | – | – | – | 1980 µM | 1390 µM | 10600 µM | 4570 µM | 35.6 µM | solubility [3, 25]: 35.6 µM |
